Measured values taken from PMC8424644, “Thermodynamic Stability and Speciation of Ga(III) and Zr(IV) Complexes with High-Denticity Hydroxamate Chelators” (Inorganic Chemistry, 2021).

Legend:
[1] = Fe(III)–Ga(III) metal–metal competition UV–vis titrations; format: physicochemical; conditions: Ga(III)-L + Fe(III) competition titration, pH 1.5; judged to carry a greater error, not retained
Description: Assuming the domination of the [GaHL1]^+ complex below pH 2, its stability was determined by metal–metal competition titrations, (i) Fe(III)-H3L1 + Ga(III) and (ii) Ga(III)-H3L1 + Fe(III), both performed at pH 1.5. This pH was chosen in order to prevent the hydrolysis of the free metal ions and decomposition of the ligand, which is common for hydroxamic acids at a very acidic pH.[37],[51] Upon addition of Ga(III) (up to 600 equiv) to the Fe(III)-H3L1 solution, the UV–vis band of [FeHL1]^+ (λmax = 470 nm, Figure 2a) slowly disappeared as a result of the [GaHL1]^+ complex formation. […]
For the Ga(III)-H4L2 system, [GaH2L2]^+ was assumed to be the most abundant species at pH 1.5, and its stability was again determined via (i) Fe(III)-H4L2 + Ga(III) and (ii) Ga(III)-H4L2 + Fe(III) titrations (Figure S8). […]
For the Ga(III)-H3L4 system, [GaHL4]^+ was assumed to be the major complex at pH 1.5, and its stability was determined via an Fe(III)-H3L4 + Ga(III) competition titration (Figure S9). […]
In order to calculate the stability constants of the investigated complexes, several competitive titrations were performed. […] After preparation, each solution was allowed to equilibrate for about 1 h, and then its UV–vis spectrum was recorded. The vials were kept in the dark, and the absorbance was measured again after 24, 48, and 120 h. […]

[2] = Fe(III)-L + Zr(IV)-NTA metal–metal competition UV–vis titrations; format: physicochemical; conditions: log β[ZrL2] vs log β[ZrL1]

| SMILES | log β [GaH2L] [1] | increase in log β of the Zr(IV) complex with respect to Zr(IV)-H3L1 [2] | log β [GaHL] [1] |
| --- | --- | --- | --- |
| N[C@H]1CCCCNC(=O)CCCN(O)C(=O)CCCNC(=O)CCCN(O)C(=O)CCCNC(=O)CCCN(O)C(=O)CCCNC(=O)CCCN(O)C(=O)CCCNC1=O [H4L2, (S)-43-Amino-6,16,26,36-tetrahydroxy-1,6,11,16,21,26,31,36,41-nonaazacycloheptatetracontane-2,7,12,17,22,27,32,37,42-nonaone] | 39.06(4) | 8.5 orders of magnitude | – |
| O=C1CCCN(O)C(=O)CCCNC(=O)CCCN(O)C(=O)CCCNC(=O)CCCN(O)C(=O)CCCN1 [H3L1, 1,11,21-Trihydroxy-1,6,11,16,21,26-hexaazacyclotriacontane-2,7,12,17,22,27-hexaone] | – | – | 28.3(6) |
